Results on two compounds are retold here after PMC5556071, “ATR inhibition facilitates targeting of leukemia dependence on convergent nucleotide biosynthetic pathways” (Nature Communications, 2017).

Structures are written as SMILES.

The subject of the assay is CEM T-ALL cells. Nature of the assay: Cell cycle kinetics by EdU incorporation (flow cytometry) after release from Palbociclib G1 arrest. The class given is cell-based, human. The settings on record: for S1 / S2 / S3: synchronous CEM, 12 h after G1 release. The protocol:
CEM T-ALL cells were synchronized in G1 phase, and then treated as indicated. Cells were pulsed with EdU 1 h before collection at different time points. Cells were fixed 4% paraformaldehyde, permeabilized with perm/wash reagent (Invitrogen), stained with Azide-AF647 (using click-chemistry, Invitrogen; Click-iT EdU Flow cytometry kit, #C10634) and FxCycle-Violet (Invitrogen), and then analyzed flow cytometry (a detailed description is available in the Supplementary Information).
Cell cycle synchronization. Cells were treated with a CDK4/6 inhibitor, Pablociclib or PD-0332991 (Selleckchem, S1116) for 18 h to synchronize them in the G1 phase. Subsequently, cells were washed twice with PBS containing 2% FBS (Omega Scientific) and released into fresh media. […]
0.5 ml of propidium iodide (Calbiochem, #P3566, 1 µg/mL) solution containing Ribonuclease A and 0.3% Triton-X 100. The samples were protected from light before acquisition by flow cytometry.
Cell cycle kinetics and cell cycle progression by intracellular detection of DNA-incorporated 5-ethynyl-2-deoxyuridine (EdU). CEM T-ALL cells were plated at a density of 0.5 x 10^6 cells/mL. Cells were pulsed with 10 µM EdU (Invitrogen) for 1 h, washed twice with PBS, and released in fresh media containing 5 µM deoxyribonucleosides, with and without drugs. Cells were collected at different time points following release in fresh media, and then fixed with 4% paraformaldehyde and permeabilized using saponin perm/wash reagent (Invitrogen). Cells were then stained with azide-Alexa Fluor 647 by Click reaction according to manufacturer’s protocol (Invitrogen; Click-iT EdU Flow cytometry kit, #C10634). The total DNA content was assessed by staining the samples with FxCycle-Violet (Invitrogen, #F10347) at 1 µg/mL final concentration in PBS containing 2% FBS. To measure the cell cycle progression of a synchronous population of cells, cells were first arrested in the G1 phase following treatment with 1 µM Palbociclib for 18 h, then washed and released in fresh media supplemented with drugs. Before collecting and fixing the cells at different time points, the cells were pulse-labeled with 10 µM EdU for 1 h, and then labeled with azide-Alexa Fluor 647 (Invitrogen; Click-iT EdU Flow cytometry kit). Total DNA content was assessed by staining with FxCycle-Violet (Invitrogen) at 1 µg/mL final concentration in PBS containing 2% FBS. pH2A.X staining. Cells were harvested, fixed and permeabilized with cytofix/cytoperm (BD biosciences, #554722) for 15 min on ice protected from light. Cells were washed, then resuspended in 100 µL 1X Perm/wash buffer (BD Sciences) and incubated for 15 min on ice. The cells were washed, then resuspended in 50 µL with phospho-Histone H2A.X (Ser139) antibody conjugated to fluorochrome FITC (EMD Millipore, #05-636, 1:800 dilutions in perm/wash) for 20 min in the dark at RT. Subsequently, cells were washed and stained with 0.5 mL of DAPI (Invitrogen, #D1306) for DNA content (1 µg/mL in 2% FBS in PBS) before data […]
Measurement of ssDNA levels using the F7-26 monoclonal antibody. Cells were harvested and fixed with ice-cold methanol:PBS (6:1 v/v) for 24h. Staining with F7-26 monoclonal mouse antibody was performed according to manufacturer’s instructions (EMD Millipore, #MAB3299). Fixed cells were resuspended in 250 µL of formamide and heated in a water bath at 75 °C for 10 min. Cells were then allowed to equilibrate to room temperature and then washed with 2 mL of 1% non-fat dry milk in PBS for 15 min. Subsequently, cells were resuspended in 100 µL of anti-ssDNA Mab F7-26 (EMD Millipore, 1:10 in 5% FBS in PBS) and incubated for 45 min at room temperature. Cells were washed with PBS and stained with 100 µL of fluorescence-conjugated
In general terms: A flow cytometer gives signals particle by particle.

Turning to `CNCc1ccc(-c2cc(-c3nc(-c4ccc(S(=O)(=O)C(C)C)cc4)cnc3N)on2)cc1` [VE-822], the “fewer cells entered S2 compared to untreated cells” value (12 h after release from G1 arrest) turned out to be 16%. Further, for the setting “+ dNTP (10 µM)”, the S1 is on record as 43%, the S2 is given as 52% and the S3 was 1.5%. For the setting “– dNTP”, this compound displayed an S1 of 58%, an S2 of 37% and an S3 of 1%.
With `COc1ccc(-c2nc([C@@H](C)Sc3nc(N)cc(N)n3)c(C)s2)cc1OCCNS(C)(=O)=O` [dCKi], the “percentage of cell population in S2* (late S-phase)” value (12 h following release from G1 arrest, DI-82 1 µM) is reported as 6.1%. Also, where the note is “+ dNTP (10 µM)”, the S1 was 42%, the S2 is recorded as 42% and the S3 is 14%. Where the note is “– dNTP”, this compound returned an S1 of 66%, an S2 of 22% and an S3 of 8.4%.
